Values quoted from earlier work, collected in US20130172260A1, “PREVENTION OF INDWELLING DEVICE RELATED INFECTION: COMPOSITION AND METHODS” (priority 2003, published 2013).

Test system: Staphylococcus epidermidis
Conditions: 5 milli Molar in a medium

O=C(O)c1ccccc1O [salicylic acid]
inhibited both growth and Biofilm production: up to 55%
